Assay results reported in ChEMBL document CHEMBL4673259, “Discovery of isoquinolinone and naphthyridinone-based inhibitors of poly(ADP-ribose) polymerase-1 (PARP1) as anticancer agents: Structure activity relationship and preclinical characterization” (Bioorg Med Chem, 2020).

Experiments:
[1] = tested on: MDA-MB-436; test: Anticancer activity against human MDA-MB-436 cells harboring BRCA mutant xenografted in SCID/nude mouse assessed as tumor growth regression at 0.15 mg/kg, po bid and measured up to 5 weeks post-drug administration; type: functional; settings: MDA-MB-436, po, 840 h, time weeks <=5
[2] = Toxicity in rat assessed as NOAEL for respiratory effect; settings: in vivo
[3] = Toxicity against SCID/nude mouse xenografted with human MDA-MB-436 cells harboring BRCA mutant assessed as body weight loss at 0.15 mg/kg, po bid for 12 days co-administered with 35 mg/kg, po TMZ; type: organism-based; settings: in vivo, 288 h, time 12 day
[4] = Protein binding in rat plasma; type: ADME, cell-free; settings: read-out: PPB (converted)
[5] = tested on: SK-ES1; test: Potentiation of anticancer activity against human SK-ES-1 cells harboring EWSF1 translocation xenografted in SCID/nude mouse assessed as tumor growth inhibition at 0.15 mg/kg, po bid for 12 days co-administered with TMZ measured up to 9 weeks post drug administration; type: functional; settings: 288 h, time 12 day
[6] = Protein binding in mouse plasma; type: ADME, cell-free; settings: read-out: PPB (converted)
[7] = Metabolic stability of the compound in mouse plasma measured up to 4 hrs; type: ADME, cell-free; settings: read-out: Stabilty
[8] = molecular target: Poly [ADP-ribose] polymerase 2 (Homo sapiens, UniProt Q9UGN5); test: Inhibition of N-terminal GST-tagged human PARP2 (2 to 583 residues) expressed in baculovirus infected Sf9 cells using histone mixture (H2A and H2B) and biotinylated NAD+ as substrate in presence of activated DNA incubated for 60 mins by chemiluminescence assay
Sequence of Poly [ADP-ribose] polymerase 2 (Q9UGN5 whole entry, the tested form may be a part): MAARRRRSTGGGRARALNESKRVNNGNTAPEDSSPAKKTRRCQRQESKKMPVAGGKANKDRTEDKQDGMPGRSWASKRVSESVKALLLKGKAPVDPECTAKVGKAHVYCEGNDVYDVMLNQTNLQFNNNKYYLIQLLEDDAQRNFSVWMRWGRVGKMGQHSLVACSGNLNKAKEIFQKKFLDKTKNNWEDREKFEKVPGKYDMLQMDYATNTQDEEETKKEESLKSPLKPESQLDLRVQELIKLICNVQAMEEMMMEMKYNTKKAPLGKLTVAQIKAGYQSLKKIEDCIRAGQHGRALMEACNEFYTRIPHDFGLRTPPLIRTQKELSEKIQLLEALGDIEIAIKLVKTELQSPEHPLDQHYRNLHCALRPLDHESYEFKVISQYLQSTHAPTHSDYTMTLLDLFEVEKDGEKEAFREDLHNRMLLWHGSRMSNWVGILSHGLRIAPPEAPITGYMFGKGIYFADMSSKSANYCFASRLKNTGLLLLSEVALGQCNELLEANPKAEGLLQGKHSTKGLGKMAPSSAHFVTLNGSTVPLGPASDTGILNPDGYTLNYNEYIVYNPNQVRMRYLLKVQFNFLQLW

[9] = molecular target: CYP1A2 (Homo sapiens, UniProt P05177); test: Inhibition of CYP1A2 (unknown origin) at 10 uM relative to control; type: ADME
Sequence of CYP1A2 (P05177 whole entry): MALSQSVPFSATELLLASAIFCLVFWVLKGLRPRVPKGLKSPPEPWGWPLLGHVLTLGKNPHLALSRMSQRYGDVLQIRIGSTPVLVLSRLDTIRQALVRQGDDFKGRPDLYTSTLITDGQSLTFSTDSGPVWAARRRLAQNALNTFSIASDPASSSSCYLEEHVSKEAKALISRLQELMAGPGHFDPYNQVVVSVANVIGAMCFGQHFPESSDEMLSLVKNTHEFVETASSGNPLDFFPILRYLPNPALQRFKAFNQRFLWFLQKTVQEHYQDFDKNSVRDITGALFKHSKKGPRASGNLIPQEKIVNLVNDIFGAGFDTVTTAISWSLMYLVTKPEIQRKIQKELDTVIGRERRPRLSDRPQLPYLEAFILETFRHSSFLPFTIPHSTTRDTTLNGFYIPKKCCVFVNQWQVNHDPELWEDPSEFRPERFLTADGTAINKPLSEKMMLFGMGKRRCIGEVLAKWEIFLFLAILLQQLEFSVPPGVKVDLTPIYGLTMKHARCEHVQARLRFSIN

[10] = tested on: MDA-MB-436; test: Anticancer activity against human MDA-MB-436 cells harboring BRCA mutant xenografted in SCID/nude mouse assessed as tumor growth regression at 0.05 mg/kg, po bid and measured up to 5 weeks post-drug administration; type: functional; settings: MDA-MB-436, po, 840 h, time weeks <=5
[11] = Metabolic stability of the compound in human plasma measured up to 4 hrs; type: ADME, cell-free; settings: read-out: Stabilty
[12] = molecular target: CYP2C19 (Homo sapiens, UniProt P33261); test: Inhibition of CYP2C19 (unknown origin) at 10 uM relative to control; type: ADME
Sequence of CYP2C19 (P33261 whole entry): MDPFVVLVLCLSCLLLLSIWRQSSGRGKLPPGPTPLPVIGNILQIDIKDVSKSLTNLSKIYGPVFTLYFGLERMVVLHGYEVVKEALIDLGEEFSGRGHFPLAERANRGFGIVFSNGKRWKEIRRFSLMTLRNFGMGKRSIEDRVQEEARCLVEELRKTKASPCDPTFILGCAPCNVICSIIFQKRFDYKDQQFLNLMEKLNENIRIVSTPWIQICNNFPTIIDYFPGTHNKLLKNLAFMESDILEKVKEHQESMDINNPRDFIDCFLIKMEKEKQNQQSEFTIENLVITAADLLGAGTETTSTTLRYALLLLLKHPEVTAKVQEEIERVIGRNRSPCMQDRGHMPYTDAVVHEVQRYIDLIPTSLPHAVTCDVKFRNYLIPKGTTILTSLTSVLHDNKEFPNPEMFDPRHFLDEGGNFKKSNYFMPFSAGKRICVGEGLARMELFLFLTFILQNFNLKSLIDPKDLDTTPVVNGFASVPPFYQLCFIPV

[13] = molecular target: CYP2B6 (Homo sapiens, UniProt P20813); test: Inhibition of CYP2B6 (unknown origin) at 10 uM relative to control; type: ADME
Sequence of CYP2B6 (P20813 whole entry): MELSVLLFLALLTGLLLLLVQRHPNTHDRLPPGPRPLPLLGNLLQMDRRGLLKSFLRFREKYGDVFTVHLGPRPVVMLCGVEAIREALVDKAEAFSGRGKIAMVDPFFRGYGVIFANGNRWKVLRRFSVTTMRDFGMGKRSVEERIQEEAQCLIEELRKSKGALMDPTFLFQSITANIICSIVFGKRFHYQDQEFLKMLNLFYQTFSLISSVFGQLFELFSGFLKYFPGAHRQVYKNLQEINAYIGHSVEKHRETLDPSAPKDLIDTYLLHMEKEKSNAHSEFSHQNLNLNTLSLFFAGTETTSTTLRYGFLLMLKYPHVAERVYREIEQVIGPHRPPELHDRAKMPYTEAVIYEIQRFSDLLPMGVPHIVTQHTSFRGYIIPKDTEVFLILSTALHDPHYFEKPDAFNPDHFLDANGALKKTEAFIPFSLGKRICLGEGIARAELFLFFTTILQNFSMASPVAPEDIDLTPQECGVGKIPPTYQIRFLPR

[14] = molecular target: CYP2E1 (Homo sapiens, UniProt P05181); test: Inhibition of CYP2E1 (unknown origin) at 10 uM relative to control; type: ADME
Sequence of CYP2E1 (P05181 whole entry): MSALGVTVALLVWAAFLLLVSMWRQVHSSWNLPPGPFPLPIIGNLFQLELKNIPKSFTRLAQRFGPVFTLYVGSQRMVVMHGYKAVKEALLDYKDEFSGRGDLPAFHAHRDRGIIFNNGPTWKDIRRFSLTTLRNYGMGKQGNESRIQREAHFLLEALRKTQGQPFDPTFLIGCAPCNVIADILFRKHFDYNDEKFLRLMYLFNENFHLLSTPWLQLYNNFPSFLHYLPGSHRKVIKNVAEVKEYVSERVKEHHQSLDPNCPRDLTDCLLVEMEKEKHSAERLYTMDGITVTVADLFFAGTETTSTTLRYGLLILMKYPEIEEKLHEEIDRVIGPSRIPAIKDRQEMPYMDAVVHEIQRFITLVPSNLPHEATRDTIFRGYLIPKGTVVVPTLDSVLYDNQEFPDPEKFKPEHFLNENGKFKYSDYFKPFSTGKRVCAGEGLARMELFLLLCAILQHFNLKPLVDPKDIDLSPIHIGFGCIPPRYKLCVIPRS

[15] = AUClast in BALB/c mouse at 10 mg/kg, po measured up to 24 hrs by LC-MS/MS analysis; type: ADME, organism-based; parameters: route oral, dose 10 mg/kg, time <=24; settings: in vivo
[16] = tested on: MDA-MB-436; test: Potentiation of anticancer activity against human MDA-MB-436 cells harboring BRCA mutant xenografted in SCID/nude mouse assessed as tumor growth inhibition at 0.15 mg/kg, po bid for 12 days co-administered with TMZ measured up to 9 weeks post drug administration; type: functional; settings: MDA-MB-436, po, 288 h, time 12 day
[17] = tested on: MDA-MB-436; test: Cytotoxicity against human MDA-MB-436 cells assessed as inhibition of cell viability incubated for 4 days by CellTiterGlo luminescence assay; settings: MDA-MB-436, 96 h
[18] = tested on: HEK293; test: Cytotoxicity against HEK293 cells at 1000 nM relative to control; type: cell-based; settings: human, hek293, 1 µM
[19] = Protein binding in dog plasma; type: ADME, cell-free, Canis lupus familiaris; settings: read-out: PPB (converted)
[20] = tested on: CAPAN-1; test: Antitumor activity against human CAPAN1 cells xenografted in SCID/nude mouse assessed as tumor growth inhibition at 0.1 mg/kg, po bid measured up to 5 weeks post drug administration; type: functional; settings: CAPAN-1, po, 840 h, time weeks <=5

fraction unbound [4]: 0.056 | fraction unbound [6]: 0.074 | remaining at 4 h [7]: 80% | IC50 [8]: 8.1 nM | inhibition at 10 µM [9]: ≤ 23% | remaining at 4 h [11]: 80% | inhibition at 10 µM [12]: ≤ 23% | inhibition at 10 µM [13]: ≤ 23% | inhibition at 10 µM [14]: ≤ 23% | AUC(0-t) at 24 h [15]: 403 µM·h | fraction unbound [19]: 0.125
Structure (SMILES): N#Cc1ccc(N2CCN([C@H]3C=C(c4cc5ncccc5c(=O)[nH]4)CC3)CC2)cc1
inhibition in vivo at 0.15 mg/kg [1]: 79% | NOAEL [2]: 30 mg/kg/day | Activity [3]: Non-Toxic | inhibition in vivo at 0.15 mg/kg [5]: 89% | inhibition in vivo at 0.05 mg/kg [10]: 83% | inhibition in vivo at 0.15 mg/kg [16]: > 90% | IC50 [17]: 0.035 nM | Activity [18]: 72% | inhibition in vivo at 0.1 mg/kg [20]: 46.1%
